As a reminder, the IC50 is the point on the concentration scale where inhibition reaches its midpoint.

This note sets out measurements from US10059694B2, “2-aminopyrimidine compound and pharmaceutical composition and use thereof” (Shanghai Institute of Materia Medica, Chinese Academy of …, priority 2014, dated 2018).

In experiment [1] the target is T1, EGFR^T790M/L858R (Homo sapiens, UniProt P00533, L858R/T790M).
T1 construct: purchased Millipore
The experiment can be described thus: kinase inhibitory activity test (ELISA), EGFR^T790M/L858R. The class given is biochemical. To be noted: ELISA, ATP 5 μM, 1 hour at 37° C. In a few lines:
(§1)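 ELISA on poly(Glu,Tyr)4:1-coated plates; kinase reaction with 5 μM ATP (final) in 50 mM HEPES pH 7.4, 50 mM MgCl2, 5 mM MnCl2, 0.2 mM Na3VO4, 1 mM DTT, 1 h at 37° C. Phosphotyrosine detected via PY99/HRP and OPD at 490 nm; IC50 by four-parameter fit.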
In general terms: An ELISA detects its analyte on a solid surface through an enzyme-linked reagent.

For experiment [2], the system named is human epidermal carcinoma A431 cell line. The experiment can be described thus: SRB proliferation assay, A431 cells. The class given is cell-based. To be noted: A-431, SRB, 72 h, read-out: IC50 A431. In a few lines: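 A431 cells in log phase are allowed to adhere for 24 h, then exposed to compound for 72 h in triplicate alongside DMSO controls. Cells are fixed with cold 10% TCA, stained with SRB, dye is solubilised in 10 mM Tris pH 10.5, and OD is read at 515 nm.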
A general note: Sulforhodamine B stains cellular protein and so reports cell mass.

Experiment [3] concerns the target T2, IGF-1R (Homo sapiens, UniProt P08069).
T2 construct: purchased Millipore
The experiment in a line: kinase inhibitory activity test (ELISA), IGF-1R. The class given is biochemical. To be noted: ATP 5 μM, 1 hour at 37° C. Put shortly:
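Poly(Glu,Tyr)4:1-coated plates; kinase reacted 1 h at 37 °C with 5 μM ATP (final) in HEPES pH 7.4 buffer with Mg2+/Mn2+. Phosphotyrosine detected by PY99 and HRP anti-mouse IgG with OPD at 490 nm; IC50 from four-parameter fit.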

Experiment [4] addresses T3, EGFR^wt (Homo sapiens, UniProt P00533).
T3 construct: purchased Millipore
The experiment can be described thus: kinase inhibitory activity test (ELISA), EGFR^WT. The class given is biochemical. To be noted: ATP 5 μM, 1 hour at 37° C. In a few lines: as §1

The subject of experiment [5] is human non-small cell lung cancer NCI-H1975 cell line. The experiment can be described thus: SRB proliferation assay, NCI-H1975 cells. The class given is cell-based. To be noted: NCI-H1975, SRB, 72 h, read-out: IC50 NCI-H1975. In a few lines:
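NCI-H1975 cells in log phase were allowed to adhere for 24 h, then treated with compound in triplicate for 72 h. Cells were TCA-fixed and SRB-stained, with OD read at 515 nm; IC50 derived from growth inhibition versus DMSO control.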

The structures appear in SMILES notation. Some results are limits rather than exact numbers.

T3 sequence (P00533 25-1210): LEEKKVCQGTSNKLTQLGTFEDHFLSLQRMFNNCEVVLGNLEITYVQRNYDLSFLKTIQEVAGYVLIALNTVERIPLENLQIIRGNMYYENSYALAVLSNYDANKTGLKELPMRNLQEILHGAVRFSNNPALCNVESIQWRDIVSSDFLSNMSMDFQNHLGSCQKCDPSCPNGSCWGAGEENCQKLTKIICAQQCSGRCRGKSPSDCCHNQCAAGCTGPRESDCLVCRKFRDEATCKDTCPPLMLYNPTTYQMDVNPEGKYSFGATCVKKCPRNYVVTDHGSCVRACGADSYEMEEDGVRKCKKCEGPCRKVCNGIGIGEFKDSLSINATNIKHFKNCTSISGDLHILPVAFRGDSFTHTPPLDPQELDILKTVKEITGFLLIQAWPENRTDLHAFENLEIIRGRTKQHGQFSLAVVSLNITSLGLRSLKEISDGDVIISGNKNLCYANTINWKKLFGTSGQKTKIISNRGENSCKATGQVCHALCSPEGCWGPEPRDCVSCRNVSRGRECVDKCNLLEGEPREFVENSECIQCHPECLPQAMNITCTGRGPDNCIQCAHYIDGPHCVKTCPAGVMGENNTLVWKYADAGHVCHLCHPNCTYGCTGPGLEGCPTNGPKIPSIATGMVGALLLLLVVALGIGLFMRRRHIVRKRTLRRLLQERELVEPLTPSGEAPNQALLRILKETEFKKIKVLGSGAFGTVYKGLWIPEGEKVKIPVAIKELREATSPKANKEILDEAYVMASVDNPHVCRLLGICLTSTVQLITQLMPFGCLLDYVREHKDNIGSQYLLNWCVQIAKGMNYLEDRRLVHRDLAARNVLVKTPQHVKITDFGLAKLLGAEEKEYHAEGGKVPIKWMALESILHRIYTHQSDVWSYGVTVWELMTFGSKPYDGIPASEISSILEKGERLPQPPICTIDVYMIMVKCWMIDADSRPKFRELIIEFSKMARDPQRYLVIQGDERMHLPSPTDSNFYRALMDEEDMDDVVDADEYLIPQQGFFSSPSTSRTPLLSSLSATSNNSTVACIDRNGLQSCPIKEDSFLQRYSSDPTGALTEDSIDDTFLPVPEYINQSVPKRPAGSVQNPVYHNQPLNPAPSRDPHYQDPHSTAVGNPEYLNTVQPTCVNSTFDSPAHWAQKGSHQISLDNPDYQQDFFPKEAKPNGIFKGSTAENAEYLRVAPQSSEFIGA
T1 sequence (P00533 25-1210 T790M/L858R): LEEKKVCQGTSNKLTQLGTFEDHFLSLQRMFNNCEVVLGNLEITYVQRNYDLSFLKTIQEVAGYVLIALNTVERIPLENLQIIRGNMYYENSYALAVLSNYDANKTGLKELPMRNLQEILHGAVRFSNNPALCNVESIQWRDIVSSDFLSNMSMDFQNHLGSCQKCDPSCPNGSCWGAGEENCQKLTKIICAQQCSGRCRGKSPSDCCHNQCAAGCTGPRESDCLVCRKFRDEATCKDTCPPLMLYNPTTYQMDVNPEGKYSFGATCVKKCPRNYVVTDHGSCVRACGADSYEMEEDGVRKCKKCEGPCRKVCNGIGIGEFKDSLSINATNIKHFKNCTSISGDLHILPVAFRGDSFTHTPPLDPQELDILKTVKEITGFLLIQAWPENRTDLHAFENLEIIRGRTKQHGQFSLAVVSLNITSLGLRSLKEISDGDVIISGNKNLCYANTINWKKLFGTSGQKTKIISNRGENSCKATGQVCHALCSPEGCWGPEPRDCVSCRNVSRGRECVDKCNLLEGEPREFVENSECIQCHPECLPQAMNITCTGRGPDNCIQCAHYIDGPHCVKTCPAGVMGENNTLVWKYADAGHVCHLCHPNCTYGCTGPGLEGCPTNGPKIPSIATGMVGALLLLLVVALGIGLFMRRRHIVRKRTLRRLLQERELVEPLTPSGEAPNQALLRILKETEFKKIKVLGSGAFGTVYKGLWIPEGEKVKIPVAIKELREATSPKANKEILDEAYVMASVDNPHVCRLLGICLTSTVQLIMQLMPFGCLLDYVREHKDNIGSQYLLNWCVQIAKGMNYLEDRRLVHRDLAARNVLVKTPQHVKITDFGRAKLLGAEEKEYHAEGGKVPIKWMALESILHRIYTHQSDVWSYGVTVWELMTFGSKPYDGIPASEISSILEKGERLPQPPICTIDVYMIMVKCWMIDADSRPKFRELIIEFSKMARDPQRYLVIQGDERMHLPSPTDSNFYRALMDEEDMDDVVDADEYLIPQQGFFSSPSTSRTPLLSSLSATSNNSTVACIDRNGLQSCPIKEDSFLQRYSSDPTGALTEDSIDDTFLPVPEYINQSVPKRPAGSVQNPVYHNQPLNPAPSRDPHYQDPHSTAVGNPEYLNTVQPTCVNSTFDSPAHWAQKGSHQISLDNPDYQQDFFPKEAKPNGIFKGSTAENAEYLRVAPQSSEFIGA
T2 sequence (P08069 31-1367): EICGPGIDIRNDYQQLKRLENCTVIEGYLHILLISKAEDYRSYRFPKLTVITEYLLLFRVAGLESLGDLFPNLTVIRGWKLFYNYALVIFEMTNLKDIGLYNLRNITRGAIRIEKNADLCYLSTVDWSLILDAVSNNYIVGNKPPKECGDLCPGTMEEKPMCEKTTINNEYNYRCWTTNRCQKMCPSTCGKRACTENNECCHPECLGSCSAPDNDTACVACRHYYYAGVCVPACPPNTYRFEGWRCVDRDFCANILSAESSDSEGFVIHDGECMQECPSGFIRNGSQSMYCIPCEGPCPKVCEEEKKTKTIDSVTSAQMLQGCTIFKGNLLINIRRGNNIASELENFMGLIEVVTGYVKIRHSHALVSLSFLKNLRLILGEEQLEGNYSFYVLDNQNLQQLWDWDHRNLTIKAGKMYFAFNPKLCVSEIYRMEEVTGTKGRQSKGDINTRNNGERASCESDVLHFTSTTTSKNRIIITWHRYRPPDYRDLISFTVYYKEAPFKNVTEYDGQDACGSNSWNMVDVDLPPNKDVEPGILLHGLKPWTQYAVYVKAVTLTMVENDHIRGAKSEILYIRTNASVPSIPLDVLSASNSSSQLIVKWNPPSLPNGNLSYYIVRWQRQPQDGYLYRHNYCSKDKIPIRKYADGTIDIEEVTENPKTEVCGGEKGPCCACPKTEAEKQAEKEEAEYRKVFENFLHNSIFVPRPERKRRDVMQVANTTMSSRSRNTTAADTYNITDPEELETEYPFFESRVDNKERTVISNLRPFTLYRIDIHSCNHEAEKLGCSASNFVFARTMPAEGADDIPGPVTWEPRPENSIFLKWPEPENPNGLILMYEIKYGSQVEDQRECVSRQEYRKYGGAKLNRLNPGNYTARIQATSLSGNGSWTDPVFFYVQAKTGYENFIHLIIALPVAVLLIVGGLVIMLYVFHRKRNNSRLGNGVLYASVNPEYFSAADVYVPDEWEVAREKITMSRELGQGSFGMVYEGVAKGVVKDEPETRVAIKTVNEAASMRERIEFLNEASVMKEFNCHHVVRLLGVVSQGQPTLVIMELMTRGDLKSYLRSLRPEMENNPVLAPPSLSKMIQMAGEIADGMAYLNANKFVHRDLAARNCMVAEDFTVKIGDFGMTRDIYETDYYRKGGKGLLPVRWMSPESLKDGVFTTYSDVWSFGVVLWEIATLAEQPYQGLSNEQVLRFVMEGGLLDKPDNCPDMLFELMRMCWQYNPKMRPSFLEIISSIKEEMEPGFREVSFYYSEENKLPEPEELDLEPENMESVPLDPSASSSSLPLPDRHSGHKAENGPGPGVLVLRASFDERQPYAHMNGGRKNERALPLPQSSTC

Take `COc1ccc(NC(=O)/C=C/CN(C)C)cc1Nc1ncc(C#N)c(Nc2ccc3ccccc3c2)n1` [CCB145293, (E)-N-((3-((5-cyano-4-((naphthalen-2-yl)amino))pyrimidin-2-yl)amino)-4-methoxyphenyl)-4-(dimethylamino)-2-butenamide]: the IC50 in experiment [1] came out at 22.6 nM; in experiment [2], 1300 nM; in experiment [3], 193 nM; in experiment [4], 173 nM; in experiment [5], 327 nM.

As for `COc1ccc(NC(=O)/C=C/CN(C)C)cc1Nc1ncc(Cl)c(N(C)c2ccc3ccccc3c2)n1` [CCB145295, (E)-N-((3-((5-chloro-4-(N-methyl-(naphthalen-2-yl)amino))pyrimidin-2-yl)amino)-4-methoxyphenyl)-4-(dimethylamino)-2-butenamide], the concentration for half-maximal inhibition (IC50) in experiment [1] was 47.2 nM; in experiment [2], 1080 nM; in experiment [3], > 1000 nM; in experiment [4] it was 93.9 nM; in experiment [5], 1180 nM.

Regarding `CN(C)C/C=C/C(=O)Nc1ccc(F)c(Nc2ncc(Cl)c(Nc3ccc4ccccc4c3)n2)c1` [CCB145329], the IC50 in experiment [1] amounted to 55.7 nM; in experiment [2], 20500 nM; in experiment [3], 198 nM; in experiment [4] it was 1400 nM; in experiment [5], 1060 nM.

With `CN(C)C/C=C/C(=O)Nc1ccc(F)c(Nc2ncc(Br)c(Nc3ccc4ccccc4c3)n2)c1` [CCB145330, (E)-N-((3-((5-bromo-4-((naphthalen-2-yl)amino))pyrimidin-2-yl)amino)-4-fluorophenyl)-4-(dimethylamino)-2-butenamide], the concentration for half-maximal inhibition (IC50) turned out to be 32.4 nM in experiment [1]; 12800 nM in experiment [2]; 146 nM in experiment [3]; 4150 nM in experiment [4]; 948 nM in experiment [5].

`CN(C)C/C=C/C(=O)Nc1cccc(Nc2ncc(Cl)c(Nc3ccc4ccccc4c3)n2)c1` [CCB145333, (E)-N-((3-((5-chloro-4-((naphthalen-2-yl)amino))pyrimidin-2-yl)amino)phenyl)-4-(dimethylamino)-2-butenamide]: the IC50 in experiment [1] came out at 24.2 nM; in experiment [2] it was 6220 nM; in experiment [3], 170 nM; in experiment [4], 4750 nM; in experiment [5] it was 632 nM.

Consider `CN(C)C/C=C/C(=O)Nc1cccc(Nc2ncc(Br)c(Nc3ccc4ccccc4c3)n2)c1` [CCB145335, (E)-N-((3-((5-bromo-4-((naphthalen-2-yl)amino))pyrimidin-2-yl)amino)phenyl)-4-(dimethylamino)-2-butenamide], for which the IC50 in experiment [1] stood at 35.7 nM; in experiment [2], 2590 nM; in experiment [3] it was 90.6 nM; in experiment [4] it was 3890 nM; in experiment [5] it was 2480 nM.

As to `Cc1ccc(NC(=O)/C=C/CN(C)C)cc1Nc1ncc(Br)c(Nc2ccc3ccccc3c2)n1` [CCB145339, (E)-N-((3-((5-bromo-4-((naphthalen-2-yl)amino))pyrimidin-2-yl)amino)-4-methylphenyl)-4-(dimethylamino)-2-butenamide], the IC50 in experiment [1] is 73.2 nM; in experiment [2] it was 2190 nM; in experiment [3], 48.3 nM; in experiment [4], 4480 nM; in experiment [5] it was 959 nM.

With `Cc1ccc(NC(=O)/C=C/CN(C)C)cc1Nc1ncc(Cl)c(Nc2ccc3ccccc3c2)n1` [CCB145340], the concentration for half-maximal inhibition (IC50) worked out at 28.7 nM in experiment [1]; 1610 nM in experiment [2]; 117 nM in experiment [3]; 2220 nM in experiment [4]; 864 nM in experiment [5].

For the molecule `Cc1cc(NC(=O)/C=C/CN(C)C)cc(Nc2ncc(Br)c(Nc3ccc4ccccc4c3)n2)c1` [CCB145342, (E)-N-((3-((5-bromo-4-((naphthalen-2-yl)amino))pyrimidin-2-yl)amino)-5-methylphenyl)-4-(dimethylamino)-2-butenamide], the half-inhibitory concentration (IC50) was found to be 44.2 nM in experiment [1]; 942 nM in experiment [2]; 127 nM in experiment [3]; 1880 nM in experiment [4]; 1260 nM in experiment [5].

`Cc1cc(NC(=O)/C=C/CN(C)C)cc(Nc2ncc(Cl)c(Nc3ccc4ccccc4c3)n2)c1` [CCB145344, (E)-N-((3-((5-chloro-4-((naphthalen-2-yl)amino))pyrimidin-2-yl)amino)-5-methylphenyl)-4-(dimethylamino)-2-butenamide]: the IC50 in experiment [1] was found to be 46.3 nM; in experiment [2], 775 nM; in experiment [3], 36 nM; in experiment [4], 613 nM; in experiment [5] it was 925 nM.

As for `Cc1ccc(Nc2ncc(Cl)c(Nc3ccc4ccccc4c3)n2)cc1NC(=O)/C=C/CN(C)C` [CCB145346, (E)-N-((5-((5-chloro-4-((naphthalen-2-yl)amino))pyrimidin-2-yl)amino)-2-methylphenyl)-4-(dimethylamino)-2-butenamide], the IC50 amounted to 56.2 nM in experiment [1]; 1040 nM in experiment [2]; 200 nM in experiment [3]; 1150 nM in experiment [4]; 598 nM in experiment [5].

As to `Cc1ccc(Nc2ncc(Br)c(Nc3ccc4ccccc4c3)n2)cc1NC(=O)/C=C/CN(C)C` [CCB145348, (E)-N-((5-((5-bromo-4-((naphthalen-2-yl)amino))pyrimidin-2-yl)amino)-2-methylphenyl)-4-(dimethylamino)-2-butenamide], the half-maximal inhibitory concentration (IC50) was 42.5 nM in experiment [1]; 4660 nM in experiment [2]; 157 nM in experiment [3]; 470 nM in experiment [4]; 1100 nM in experiment [5].

For the molecule `CCOc1ccc(NC(=O)/C=C/CN(C)C)cc1Nc1ncc(Cl)c(Nc2ccc3ccccc3c2)n1` [CCB145373, (E)-N-((3-((5-chloro-4-((naphthalen-2-yl)amino))pyrimidin-2-yl)amino)-4-ethoxyphenyl)-4-(dimethylamino)-2-butenamide], the IC50 in experiment [1] stood at 25.6 nM; in experiment [2], 6260 nM; in experiment [3], 163 nM; in experiment [4] it was 1460 nM; in experiment [5], 1180 nM.

As for `CCOc1ccc(NC(=O)/C=C/CN(C)C)cc1Nc1ncc(Br)c(Nc2ccc3ccccc3c2)n1` [CCB145374, (E)-N-((3-((5-bromo-4-((naphthalen-2-yl)amino))pyrimidin-2-yl)amino)-4-ethoxyphenyl)-4-(dimethylamino)-2-butenamide], the IC50 in experiment [1] was 11.3 nM; in experiment [2], 4470 nM; in experiment [3], 86.4 nM; in experiment [4], 2830 nM; in experiment [5], 2820 nM.

Take `COc1cc(F)c(NC(=O)/C=C/CN(C)C)cc1Nc1ncc(Cl)c(Nc2ccc3ccccc3c2)n1` [CCB145380, (E)-N-((5-((5-chloro-4-((naphthalen-2-yl)amino))pyrimidin-2-yl)amino)-2-fluoro-4-methoxyphenyl)-4-(dimethylamino)-2-butenamide]: the half-inhibitory concentration (IC50) in experiment [1] came out at 6.7 nM; in experiment [2], 1670 nM; in experiment [3], 195 nM; in experiment [4] it was 1060 nM; in experiment [5] it was 429 nM.

In the case of `COc1cc(F)c(NC(=O)/C=C/CN(C)C)cc1Nc1ncc(Br)c(Nc2ccc3ccccc3c2)n1` [CCB145381, (E)-N-((5-((5-bromo-4-((naphthalen-2-yl)amino))pyrimidin-2-yl)amino)-2-fluoro-4-methoxyphenyl)-4-(dimethylamino)-2-butenamide], the IC50 in experiment [1] came out at 7.5 nM; in experiment [2], 1790 nM; in experiment [3], 102 nM; in experiment [4], 3540 nM; in experiment [5], 508 nM.
